Like-named read-outs stand apart in the source and are kept apart here.

Series [1] relates to human colon adenocarcinoma cell line DLD-1 [ヒト結腸腺癌細胞株DLD-1]. Briefly: MTT cell proliferation assay, DLD-1. In kind it is cell-based.
Series [2] has as its system human epidermoid carcinoma cell line A-431 [ヒト類表皮癌細胞株A-431]. In words: MTT cell proliferation assay, A-431. In kind it is cell-based. Particulars: for inhibition at 50 µg/mL: Homo sapiens, A-431, Example 7, 50 μg/ml, 24 h.
For series [3], the system named is human basal cell carcinoma cell line TE 354.T [ヒト基底細胞癌細胞株TE 354.T]. In words: MTT cell proliferation assay, TE 354.T. Format: cell-based. Conditions: for inhibition at 50 µg/mL: Homo sapiens, Example 8, 50 μg/ml, 24 h.
In series [4] the test system is human esophageal cancer cell line KYSE-30 [ヒト食道癌細胞株KYSE-30]. Briefly: MTT cell proliferation assay, KYSE-30. Conditions: for inhibition at 58.5 µg/mL: low but significant. Format: cell-based.
Series [5] relates to human gastric cancer cell line NCI-N87 [ヒト胃癌細胞株NCI-N87]. Briefly: MTT cell proliferation assay, NCI-N87.
The subject of series [6] is human melanoma cell line A-2058 [ヒト黒色腫細胞株A-2058]. In words: MTT cell proliferation assay, A-2058. In kind it is cell-based.
Setting [7] is: Homo sapiens, NCI-N87, read-out: antiproliferative activity.

On to `CCCCCCCCCCCCC(O)CCCCC(O)CC(=O)OCC(O)COC(C)=O` (stereo not drawn) [GLY-1Ac-1, 1-(3,8-ジヒドロキシエイコサノイル)3-アセトキシグリセロール], for which the inhibition at 25 µg/mL in series [1] (Homo sapiens, DLD-1, Example 9, second assay (retest), 25 μg/ml, read-out: antiproliferative activity) came to 13%; in series [4] (Homo sapiens, KYSE-30, Example 13, 25 μg/ml, read-out: antiproliferative activity), 50%; in series [5] (setting [7]) it was 86%. Further, the inhibition at 50 µg/mL in series [1] (Homo sapiens, DLD-1, Example 9, second assay (retest), 50 μg/ml, read-out: antiproliferative activity) was determined as 94%; in series [2], 80.6%; in series [3] it was 27.3%. Also, in series [4] (Example 13, 50 μg/ml), the “potency ranking (in words)” value is given as “最も強力”. Moreover, the inhibition at 10 µg/mL came out at 9% in series [4] (Homo sapiens, KYSE-30, Example 13, 10 μg/ml, not statistically significant, read-out: antiproliferative activity) and 39% in series [5] (setting [7]).
On to `CCCCCCCCCCCCCCCC(=O)OCC(O)CO` (stereo not drawn) [MGP, モノパルミチン酸グリセロール], for which the inhibition at 50 µg/mL in series [4] (Homo sapiens, KYSE-30, Example 13, 50 μg/ml, read-out: inhibition of proliferation / antiproliferative activity) is 75%.
For `CCCCCCCCCCCCC(O)CCCCC(O)CC(=O)OCC(O)CO` (stereo not drawn) [GLY-0Ac-1, 1-(3,8-ジヒドロキシエイコサノイル)グリセロール], the inhibition at 50 µg/mL in series [2] stood at 81.5%; in series [3], 38%.
In the case of `CCCCCCCCCCCCCC(O)CCCCC(O)CC(=O)OCC(O)CO` (stereo not drawn) [GLY-0Ac-2, 1-(3,8-ジヒドロキシヘンエイコサノイル)グリセロール], the “potency ranking (in words)” value in series [6] (Example 6, 50 μg/ml, highly purified compounds) was “最も強力”.
For `CCCCCCCCCCCCCC(O)CCCCC(O)CC(=O)OCC(O)COC(C)=O` (stereo not drawn) [GLY-1Ac-2, 1-(3,8-ジヒドロキシヘンエイコサノイル)3-アセトキシグリセロール], the “potency ranking (in words)” value in series [1] (Example 9, first assay, 50 μg/ml) is “最も強力”.
Take `O=c1[nH]cc(F)c(=O)[nH]1` [5-フルオロウラシル]: the “antiproliferative activity (in words)” value in series [1] (Example 9, 5-FU at 0.65 and 1.95 μg/ml) is listed as “低い且つ有意ではない活性”; in series [1] (Example 10, 5-FU at 6.5, 19.5 and 58.5 μg/ml) it was “低い且つ有意ではない活性”; in series [6] (Example 6, 5-FU at 0.195, 0.65 and 1.95 μg/ml), “低い且つ有意ではない活性”; in series [2] (Example 7, 5-FU at 0.195, 0.65 and 1.95 μg/ml) it was “低い且つ有意ではない活性”; in series [3] (Example 8, 5-FU at 0.195, 0.65 and 1.95 μg/ml) it was “低い且つ有意ではない活性”; in series [4] (Example 13, 5-FU at 6.5 and 19.5 μg/ml), “有意ではない活性”. Besides, the “antiproliferative activity (in words)” value is listed as “有意ではない活性” in series [4] (Example 14, 5-FU at 6.5 and 19.5 μg/ml); “低い且つ有意ではない活性” in series [5] (Example 11, 5-FU at 6.5, 19.5 and 58.5 μg/ml); “低い且つ有意ではない活性” in series [5] (Example 12, 5-FU at 6.5, 19.5 and 58.5 μg/ml). Further, the inhibition at 58.5 µg/mL in series [4] (Homo sapiens, KYSE-30, Example 13, 5-FU at 58.5 μg/ml, read-out: antiproliferative activity) was determined as 17%; in series [4] (Homo sapiens, KYSE-30, Example 14, 5-FU at 58.5 μg/ml, read-out: inhibition of proliferation), 16.8%. Also, the “activity ranking of 5-FU concentrations (in words)” value in series [5] (Example 11, 5-FU at 6.5 μg/ml (of 6.5, 19.5, 58.5 μg/ml)) is on record as “最も高い活性”; in series [5] (Example 12, 5-FU at 6.5 μg/ml (of 6.5, 19.5, 58.5 μg/ml)), “最も高い活性”.

The values above are taken from patent publication JP2022046588A, “治療用組成物およびその使用” (priority 2016, dated 2017).
